From publication PMC9905731, “PIN1 and PIN4 inhibition via parvulin impeders Juglone, PiB, ATRA, 6,7,4′-THIF, KPT6566, and EGCG thwarted hepatitis B virus replication” (Frontiers in Microbiology, 2023)
Read-outs that look alike come from different tables or passages of the source.

Columns and labels:
[1] = test system: HBV replication in Huh7, HepAD38, HepG2, and HepG2.2.15 cells; type: cell-based, hepatitis B virus
[2] = test system: HBV-infected HepG2-hNTCP-C9 cells; test: HBV replication in HBV-infected HepG2-hNTCP-C9 cells; type: cell-based, hepatitis B virus; settings: 9 days; 20 μM Juglone or PiB, 30 μM ATRA, 6,7,4′-THIF or KPT6566, 40 μM EGCG; vs solvent
Protocol: Figure 9 PIN1 and PIN4 Inhibition via Juglone, PiB, ATRA, 6,7,4′-THIF, KPT6566, and EGCG abrogate HBV replication in HBV-infected cells. […] HepG2-hNTCP-C9 cells were seeded and infected, as described previously, in the “Material and Methods” section. Infected cells (lanes 2–3) were treated with solvent (lane 2) or 20 μM Juglone, 20 μM PiB, 30 μM ATRA, 30 μM 6,7,4′-THIF, 30 μM KPT6566, 40 μM EGCG (lane 3) for 9 days, and lysates were subjected to SDS-PAGE and immunoblotting, NAGE, Northern blotting, and Southern blotting. The shown data are representation from three independent experiments. The statistical significance was determined by using Student’s t-test. *p < 0.05, **p < 0.005, ***p < 0.0005 relative to the corresponding control.
HBV inoculum was harvested from HepAD38 cells for infection experiments. HepAD38 cells in DMEM plus 10% FBS, 1% PS, G418 (0.5 mg/ml), insulin (5 μg/ml), and hydrocortisone hemisuccinate (50 μM) were grown, and on every third day after passage of day 10th (till 31st), the media supernatants were collected and concentrated via 20 to 60% sucrose gradient by ultra-centrifugation (Beckman Coulter Optima L-90 K) method, as described previously ([Saeed et al., 2019], [2021]). The HBV DNAs from the pelleted precipitant were examined by Southern blotting. […] The following day, the cell media was refreshed after PBS washing and maintained in 2.5% DMSO containing media. On the 9th day post-infection, the cellular lysates were prepared and subjected to SDS-PAGE and immunoblotting, core particle immunoblotting, and Southern blot analysis. At 5 days post-infection, HBV RNA levels were determined by Northern blotting.
Juglone (Sigma Aldrich, AG17724), PiB (Calbiochem, CAS 64005–90-9), ATRA (Sigma-Aldrich, R2625), 6,7,4′-THIF (Chem Faces, CFN90796), KPT6566 (ProbeChem, PC-61182), or EGCG (Sigma Aldrich, 989–51-5) was treated to Huh7, HepAD38, HepG2, HepG2.2.15, and HepG2-hNTCP-C9 cells. Prior to the conduct of experiments, the cytotoxic effects of Juglone, PiB, ATRA, 6,7,4′-THIF, KPT6566, or EGCG were examined via MTT assay (3-[4,5-dimethylththiazol-2-yl]-2,5-diphenyltetrazolium bromide), as described previously ([Bichko et al., 1985]; [Piracha et al., 2018], [2020]; [Saeed et al., 2019], [2021]). Briefly, selected HCC cell lines (HepG2, Huh7, HepG2.2.15, and HepAD38) in 6 cm plates were treated with Juglone (20 μM), PiB (20 μM), ATRA (30 μM), 6,7,4′-THIF (30 μM), KPT6566 (30 μM), or EGCG (40 μM) at transfection or at the time of TC removal from HepAD38 cells. Juglone (20 μM in ethanol, Sigma Aldrich, AG17724) was treated to 1.3 mer HBV-WT transfected Huh7 cells (Figure 3A) or TC-depleted HepAD38 cells (Figure 3B) or to 1.3 mer HBV-WT transfected HepG2 (Figure 3C) or HepG2.2.15 (Figure 3D) cells for 72 h. PiB (20 μM in DMSO, Calbiochem, CAS 64005-90-9) was treated for 72 h to 1.3 mer HBV-WT transfected Huh7 cells (Figure 4A) or TC-depleted HepAD38 cells (Figure 4B) or to 1.3 mer HBV-WT transfected HepG2 cells (Figure 4C) or HepG2.2.15 (Figure 4D) cells. To examine the effects on HBV replication, ATRA (30 μM in DMSO, R2625 Sigma-Aldrich) was treated for 72 h to 1.3 mer HBV-WT transfected Huh7 cells (Figure 5A) or TC-depleted HepAD38 cells (Figure 5) or to 1.3 mer HBV-WT transfected HepG2 cells (Figure 5C) or HBV replicating HepG2.2.15 (Figure 5D) cells. 6,7,4′-THIF (30 μM in DMSO, CFN90796 Chem Faces) was treated for 72 h to 1.3 mer HBV-WT transfected Huh7 cells (Figure 6A) or TC-depleted HepAD38 cells (Figure 6B) or to 1.3 mer HBV-WT transfected HepG2 cells (Figure 6C) or HBV replicating HepG2.2.15 (Figure 6D) cells. KPT-6566 (30 μM in DMSO, PC-61182 ProbeChem) was treated for 72 h to 1.3 mer HBV-WT transfected Huh7 cells (Figure 7A) or TC-depleted HepAD38 cells (Figure 7B) or to 1.3 mer HBV-WT transfected HepG2 cells (Figure 7C) or HBV replicating HepG2.2.15 (Figure 7D) cells. […]

[3] = 72 h, 20 μM Juglone or PiB, 30 μM ATRA, 6,7,4′-THIF or KPT-6566, 40 μM EGCG, vs solvent

Compound | HBV RNA levels / HBV transcription (Northern blotting) [1, 3] | HBc expression, core particle synthesis and HBV DNA levels [1, 3] | HBV replication in infected cells (HBc, HBV transcripts, core particles, HBV DNA) [2] | HBV RNA levels / HBV transcription (Northern blotting) [1] | HBc expression, core particle synthesis and HBV DNA levels [1]
CCOC(=O)CN1C(=O)c2ccc3c4c(ccc(c24)C1=O)C(=O)N(CC(=O)OCC)C3=O [PiB, 1,3,6,8-tetrahydro-1,3,6,8-tetraoxo-benzo [lmn][3,8] phenanthroline-2,7-diacetic acid, 2,7-diethyl ester] | significantly reduced | notably abrogated | restricted HBV replication |  | 
O=C(O[C@@H]1Cc2c(O)cc(O)cc2O[C@@H]1c1cc(O)c(O)c(O)c1)c1cc(O)c(O)c(O)c1 [EGCG, Epigallocatechin gallate] | lower levels | reduced significantly | restricted HBV replication |  | 
CC1=C(/C=C/C(C)=C/C=C/C(C)=C/C(=O)O)C(C)(C)CCC1 [ATRA, All-trans-retinoic acid] |  |  | restricted HBV replication | reduced | reduced
CC(C)(C)c1ccc(S(=O)(=O)N=C2C=C(SCC(=O)O)C(=O)c3ccccc32)cc1 [KPT6566, 2-[[4-[[[4-(1,1-dimethylethyl)phenyl]sulfonyl]imino]-1,4-dihydro-1-oxo-2-naphthalenyl]thio] acetic acid] | restricted | restricted | restricted HBV replication |  | 
O=c1c(-c2ccc(O)cc2)coc2cc(O)c(O)cc12 [6,7,4′-THIF, 6,7-dihydroxy-3-(4-hydroxyphenyl)-4H-chromen-4-one] | significantly aborted | significantly aborted | restricted HBV replication |  | 
O=C1C=CC(=O)c2c(O)cccc21 [Juglone, 5-hydroxyl-1,4-naphthoquinone] | significantly decreased | dramatically reduced | restricted HBV replication |  | 
